Reference: patent US6706663B2, “Herbicidal 3-heterocyclic substituted benzisothiazole and benzisoxazole compounds” (Wyeth, priority 2000, dated 2004)

Columns and labels:
[1] = test system: ECHORC (Echinochloa oryzoides); assay: Flooded paddy, preemergence weed control; format: in vivo, Echinochloa oryzoides (Ard.) Fritsch.; conditions: rate 0.1250 kg/ha, rated 3-4 weeks after treatment, 0-9 rating scale
Summary of the method: (§1)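 Greenhouse paddy test, preemergence. Seeds planted in the top 0.5 cm of silt loam soil, which remained flooded at 1.5–3 cm depth. Scored 0-9 by visual comparison with control.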

[2] = test system: CYPSE (Cyperus serotinus); assay: Flooded paddy, preemergence weed control; format: in vivo, Rottb.; conditions: rate 0.1250 kg/ha, rated 3-4 weeks after treatment, 0-9 rating scale
Method: Results of herbicide evaluation are expressed on a rating scale (0-9). The scale is based upon a visual observation of plant stand, vigor, malformation, size, chlorosis and overall plant appearance as compared with a control.
Preemergence herbicidal activity under flooded paddy conditions is determined as follows: plant seeds or propagating organs are planted in the top 0.5 cm of silt loam soil in 32 oz. plastic containers with a diameter of 10.5 cm and no drainage holes. Water is added to these containers and maintained at 1.5 to 3 cm above the soil surface for the duration of the experiment. The test compounds are applied as aqueous/acetone mixtures 50/50 v/v pipetted directly into the flood water to give the equivalent of about 0.0080 to 0.1250 kg/ha of active ingredient. The treated containers are placed on greenhouse benches and cared for in accordance with conventional greenhouse procedures. Three to four weeks after treatment, the test is terminated and each container is examined and herbicidal effect rated according to the rating system provided in Example 87.

[3] = test system: IPOHE (Ipomoea hederacea); assay: Postemergence herbicidal evaluation; format: in vivo, (L.) Jacq.; conditions: rate 0.0620 kg/ha
Summary of the method: (§2)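 Visual 0–9 injury scores versus control plants, covering stand, vigour, malformation, size, chlorosis and general appearance, taken four to five weeks post-spray and averaged over replicate tests. Plants were sprayed at roughly two weeks old and held on greenhouse benches.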

[4] = test system: SAGPY (Sagittaria pygmaea); assay: Flooded paddy, preemergence weed control; format: in vivo, L.; conditions: rate 0.1250 kg/ha, rated 3-4 weeks after treatment, 0-9 rating scale
Summary of the method: as §1

[5] = test system: ECHCG (Echinochloa crus-galli); assay: Postemergence herbicidal evaluation; format: in vivo, (L.) Beau; conditions: rate 0.0620 kg/ha
Summary of the method: as §2

ORYSAT (Rice, Tebonnet) [6] = assay: Flooded paddy, post-transplant rice tolerance; format: in vivo, Oryza sativa, (L.) Tebonnet; conditions: flooded paddy, post-transplant rice; rate 0.1250 kg/ha; rated 3-4 weeks after treatment; 0-9 rating scale
Summary of the method: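 Two ten-day-old seedlings were transplanted into silt loam, flooded and held at 1.5 to 3 cm water above the soil before herbicide treatment. Pots stayed in the greenhouse at that water level. Injury was scored visually on a 0-9 scale versus untreated control.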

CYPIR (Cyperus iria) = assay: Flooded paddy, preemergence weed control; format: in vivo; conditions: rate 0.1250 kg/ha, rated 3-4 weeks after treatment, 0-9 rating scale
Summary of the method: as §1

[7] = test system: AMBEL (Ambrosia artemisifolia); assay: Postemergence herbicidal evaluation; format: in vivo, L.; conditions: rate 0.0620 kg/ha
Summary of the method: as §2

[8] = test system: CHEAL (Chenopodium album); assay: Postemergence herbicidal evaluation; format: in vivo, L.; conditions: rate 0.0620 kg/ha
Summary of the method: as §2

[9] = test system: CASOB (Cassia obtusifolia); assay: Postemergence herbicidal evaluation; format: in vivo, L.; conditions: rate 0.0620 kg/ha
Summary of the method: as §2

ZEAMX (Corn, Field) [10] = assay: Preemergence herbicidal evaluation; format: in vivo, Zea mays, L.; conditions: preemergence, rated 4-5 weeks after treatment
GALAP (Galium aparine) [11] = assay: Postemergence herbicidal evaluation; format: in vivo; conditions: rate 0.0620 kg/ha
Summary of the method: as §2

[12] = test system: AMBEL (Ambrosia artemisifolia); assay: Preemergence herbicidal evaluation; format: in vivo, L.; conditions: preemergence, rated 4-5 weeks after treatment
Summary of the method: (§3)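 Rating 0–9, visual, vs control; 4–5 wk after spraying seeded cups with compound in aq. acetone; conventional greenhouse care.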

[13] = test system: CHEAL (Chenopodium album); assay: Preemergence herbicidal evaluation; format: in vivo, L.; conditions: preemergence, rated 4-5 weeks after treatment
Summary of the method: as §3

[14] = test system: CASOB (Cassia obtusifolia); assay: Preemergence herbicidal evaluation; format: in vivo, L.; conditions: preemergence, rated 4-5 weeks after treatment
Summary of the method: as §3

[15] = test system: ECHCG (Echinochloa crus-galli); assay: Preemergence herbicidal evaluation; format: in vivo, (L.) Beau; conditions: preemergence, rated 4-5 weeks after treatment
Summary of the method: as §3

SETVI (Setaria viridis) [16] = assay: Preemergence herbicidal evaluation; format: in vivo, (L.) Beau; conditions: preemergence, rated 4-5 weeks after treatment
Summary of the method: as §3

[17] = test system: TRZAWR (Wheat, Winter, cv Riband); assay: Preemergence herbicidal evaluation; format: in vivo, Triticum aestivum; conditions: preemergence, rated 4-5 weeks after treatment
Summary of the method: as §3

SETVI (Setaria viridis) [18] = assay: Postemergence herbicidal evaluation; format: in vivo, (L.) Beau; conditions: rate 0.0620 kg/ha
Summary of the method: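 Visual injury score (0-9: stand, vigor, malformation, size, chlorosis, overall appearance vs untreated control) taken four to five weeks post-spray. Two-week-old seedlings received about 0.0040 to 1.000 kg/ha active compound in acetone/water with 0.5% TWEEN 20.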

ZEAMX (Corn, Field) [19] = assay: Postemergence herbicidal evaluation; format: in vivo, Zea mays, L.; conditions: rate 0.0620 kg/ha
Summary of the method: as §2

GALAP (Galium aparine) [20] = assay: Preemergence herbicidal evaluation; format: in vivo; conditions: preemergence, rated 4-5 weeks after treatment
Summary of the method: as §3

ORYSAT (Rice, Tebonnet) [21] = assay: Postemergence herbicidal evaluation; format: in vivo, Oryza sativa, (L.) Tebonnet; conditions: rate 0.0620 kg/ha
Summary of the method: as §2

[22] = test system: ABUTH (Abutilon theophrasti); assay: Postemergence herbicidal evaluation; format: in vivo, Medic.; conditions: rate 0.0620 kg/ha
Summary of the method: as §2

[23] = test system: ABUTH (Abutilon theophrasti); assay: Preemergence herbicidal evaluation; format: in vivo, Medic.; conditions: preemergence, rated 4-5 weeks after treatment
ORYSAT (Rice, Tebonnet) [24] = assay: Preemergence herbicidal evaluation; format: in vivo, Oryza sativa, (L.) Tebonnet; conditions: preemergence, rated 4-5 weeks after treatment
[25] = test system: TRZAWR (Wheat, Winter, cv Riband); assay: Postemergence herbicidal evaluation; format: in vivo, Triticum aestivum; conditions: rate 0.0620 kg/ha
Summary of the method: as §2

[26] = test system: MOOVA (Monochoria vaginalis); assay: Flooded paddy, preemergence weed control; format: in vivo, Presl.; conditions: rate 0.1250 kg/ha, rated 3-4 weeks after treatment, 0-9 rating scale
Summary of the method: as §1

[27] = test system: GLXMAW (Soybean, Williams); assay: Preemergence herbicidal evaluation; format: in vivo, Glycine max, (L.) Merr. cv Williams; conditions: preemergence, rated 4-5 weeks after treatment
[28] = test system: GLXMAW (Soybean, Williams); assay: Postemergence herbicidal evaluation; format: in vivo, Glycine max, (L.) Merr. cv Williams; conditions: rate 0.0620 kg/ha
Summary of the method: as §2

[29] = test system: IPOHE (Ipomoea hederacea); assay: Preemergence herbicidal evaluation; format: in vivo, (L.) Jacq.; conditions: preemergence, rated 4-5 weeks after treatment

| SMILES | herbicidal rating, ECHORC [1] | herbicidal rating, CYPSE [2] | Postemergence herbicidal rating, IPOHE [3] | herbicidal rating, SAGPY [4] | Postemergence herbicidal rating, ECHCG [5] | herbicidal rating, ORYSAT (rice tolerance) (ORYSAT (Rice, Tebonnet) [6]) | herbicidal rating, CYPIR (CYPIR (Cyperus iria)) | Postemergence herbicidal rating, AMBEL [7] | Postemergence herbicidal rating, CHEAL [8] | Postemergence herbicidal rating, CASOB [9] | Postemergence herbicidal rating, GALAP (GALAP (Galium aparine) [11]) | Postemergence herbicidal rating, SETVI (SETVI (Setaria viridis) [18]) | Postemergence herbicidal rating, ZEAMX (ZEAMX (Corn, Field) [19]) | Postemergence herbicidal rating, ORYSAT (ORYSAT (Rice, Tebonnet) [21]) | Postemergence herbicidal rating, ABUTH [22] | Postemergence herbicidal rating, TRZAWR [25] | herbicidal rating, MOOVA [26] | Postemergence herbicidal rating, GLXMAW [28] | other results |
| --- | --- | --- | --- | --- | --- | --- | --- | --- | --- | --- | --- | --- | --- | --- | --- | --- | --- | --- | --- |
| C[C@H]1O[C@@H]1c1nsc2ccc(-n3c(=O)cc(C(F)(F)F)n(C)c3=O)cc12 [Compound 14, 3-[3-[(1R,2R)-1,2-epoxypropyl]-1,2-benzisothiazol-5-yl]-1-methyl-6-(trifluoromethyl)uracil] | 8.0 | 8.0 | 9.0 | 9.0 | 2.0 | 9.0 | 9.0 | 9.0 | 8.0 | 2.0 | 9.0 | 3.0 | 6.0 | 6.0 | 9.0 | 6.5 | 9.0 | 7.5 | ZEAMX preemergence herbicidal rating (ZEAMX (Corn, Field) [10]; Rate 0.2500 kg/ha): 8.5; AMBEL preemergence herbicidal rating ([12]; Rate 0.2500 kg/ha): 9.0; CHEAL preemergence herbicidal rating ([13]; Rate 0.2500 kg/ha): 9.0; CASOB preemergence herbicidal rating ([14]; Rate 0.2500 kg/ha): 9.0; ECHCG preemergence herbicidal rating ([15]; Rate 0.2500 kg/ha): 9.0; SETVI preemergence herbicidal rating (SETVI (Setaria viridis) [16]; Rate 0.2500 kg/ha): 9.0; TRZAWR preemergence herbicidal rating ([17]; Rate 0.2500 kg/ha): 9.0; GALAP preemergence herbicidal rating (GALAP (Galium aparine) [20]; Rate 0.2500 kg/ha): 9.0; ABUTH preemergence herbicidal rating ([23]; Rate 0.2500 kg/ha): 9.0; ORYSAT preemergence herbicidal rating (ORYSAT (Rice, Tebonnet) [24]; Rate 0.2500 kg/ha): 9.0; GLXMAW preemergence herbicidal rating ([27]; Rate 0.2500 kg/ha): 8.0; IPOHE preemergence herbicidal rating ([29]; Rate 0.2500 kg/ha): 9.0 |
| Cn1c(C(F)(F)F)cc(=O)n(-c2cc3c(-c4ccccn4)nsc3cc2F)c1=O [Compound 25, 3-[6-fluoro-3-(2-pyridyl)-1,2-benzisothiazol-5-yl]-1-methyl-6-(trifluoromethyl)uracil] | 9.0 | 9.0 | 9.0 | 9.0 | 3.0 | 9.0 | 9.0 | 9.0 | 9.0 | 9.0 | 4.0 | 9.0 | 7.0 | 3.0 | 9.0 | 4.5 | 9.0 | 9.0 | ZEAMX preemergence herbicidal rating (ZEAMX (Corn, Field) [10]; Rate 0.1250 kg/ha): 8.0; AMBEL preemergence herbicidal rating ([12]; Rate 0.1250 kg/ha): 9.0; CHEAL preemergence herbicidal rating ([13]; Rate 0.1250 kg/ha): 9.0; CASOB preemergence herbicidal rating ([14]; Rate 0.1250 kg/ha): 9.0; ECHCG preemergence herbicidal rating ([15]; Rate 0.1250 kg/ha): 9.0; SETVI preemergence herbicidal rating (SETVI (Setaria viridis) [16]; Rate 0.1250 kg/ha): 9.0; TRZAWR preemergence herbicidal rating ([17]; Rate 0.1250 kg/ha): 9.0; GALAP preemergence herbicidal rating (GALAP (Galium aparine) [20]; Rate 0.1250 kg/ha): 5.0; ABUTH preemergence herbicidal rating ([23]; Rate 0.1250 kg/ha): 9.0; ORYSAT preemergence herbicidal rating (ORYSAT (Rice, Tebonnet) [24]; Rate 0.1250 kg/ha): 9.0; GLXMAW preemergence herbicidal rating ([27]; Rate 0.1250 kg/ha): 7.0; IPOHE preemergence herbicidal rating ([29]; Rate 0.1250 kg/ha): 9.0 |
